In patent US20250025438A1, “Derivative of aspartic acid and use thereof in treatment of metabolic diseases such as hepatic fibrosis and non-alcoholic hepatitis” (SHENZHEN JINGTAI TECHNOLOGY CO., LTD., priority 2021, published 2025):
Structures can show the parent of a compound that is named as a salt. Where a SMILES comes first, the peptide text is derived from it.

Key:
Type in all cases: cell-based
[1] = test system: COL3A1; assay: In vitro efficacy in semi-activated LX2 cells, qPCR: COL3A1; settings: 48 hours, Q-PCR; for inhibition at 50 µM: Homo sapiens, LX-2, 50 µM, read-out: COL3A1 mRNA inhibition rate; for COL3A1 mRNA inhibition rate: 50 µM
Method: (§1) Test compounds were added to the LX-2 cells respectively, and total RNA in the cells was extracted 48 hours later. This experiment was performed strictly in accordance with the instructions of the Total RNA Kit. The steps were as follows (note: this experiment was performed on ice throughout the entire process, and special RNase-free tips were used throughout the entire process): • 1) The 12-well cell culture plate was taken out from the incubator, the cell culture medium was discarded, the cells were washed twice with 1 mL of 1×PBS, and a negative pressure suction device was used to fully remove PBS; • 2) 350 μL of TRK Lysis Buffer mixture/well was prepared as needed (mixture preparation method: 1 mL of TRKLysis Buffer+20 μL of β-mercaptoethanol), vortexed and mixed well. 350 μL was added to each well of the 12-well cell culture plate, and allowed to stand at room temperature for 5 minutes to fully lyse the cells; • 3) 70% ethanol/well was prepared as needed, vortexed and mixed well. 350 μL was added to each well of the 12-well cell culture plate, mixed well by shaking, and transferred to the spin column (spin column+collection tube were assembled); • 4) Centrifugation was performed at 4° C., 12000 g for 60 sec. The waste liquid was discarded after centrifugation, while the spin column was kept; • 5) 500 μL of RNA Wash Buffer I was added, centrifuged at 4° C., 12000 g for 60 sec, the waste liquid was discarded after centrifugation, and the collection column was kept; • 6) 500 μL of RNA Wash Buffer II (confirmed that ethanol had been added) was added, centrifuged at 4° C., 12000 g for 60 sec, the waste liquid was discarded after centrifugation, and the collection column was kept; • 7) step 6) was repeated once again, centrifugation was performed at 4° C., 12000 g for 90 sec, the waste liquid was discarded after centrifugation, and the collection column was kept; • 8) Centrifugation was performed at 4° C., 12000 g for 120 sec to ensure that the spin column was fully dried; • 9) The dried spin column was inserted into a new 1.5 mL EP tube, and 30 μL of DEPC water was added to the membrane in the center of the spin column. It should be careful not to touch the EP tube cover in this step. It was allowed to stand at room temperature for 5 minutes to ensure that the RNA was fully dissolved in DEPC water. Centrifugation was performed at 4° C., 12000 g for 60 sec, and the EP tube was kept; • 10) NanoDrop ultra-micro-volume spectrophotometer was used to detect RNA concentration;
(§2) 5.2 Reverse transcription of RNA into cDNA: According to the instructions of PrimeScript™ RT reagent Kit (Perfect Real Time), the specific experimental steps were as follows:
(§3) 5.3 Q-PCR detection of target gene expression: According to the instructions of Power SYBR® Green PCR Master Mix, the specific operations were as follows:
(§4) After the reaction was completed, the amplification curve and dissolution curve of Q-PCR were confirmed, and the relative quantification method ([…]) was used to perform data analysis on the experimental results.
(§5) LX2 cells were passaged and plated normally. […] After 48 hours, the cells were collected, total RNA was extracted, and Q-PCR was used to detect the changes in the mRNA expression levels of liver fibrosis-related genes (ACTA2 encoding α-SMA, COL1A1 and COLIA2 encoding collagen I, COL3A1 encoding collagen III, SMAD3 encoding Smad3) and inflammation-related genes (IL1β encoding IL-1β, TNFα encoding TNFα) (for specific methods, see 5. Q-PCR detection of target gene expression as described above). α-SMA was a marker of hepatic stellate cell activation, and collagen I and collagen III were the main components of extracellular matrix deposition.

[2] = test system: COL1A1; assay: In vitro efficacy in semi-activated LX2 cells, qPCR: COL1A1; settings: 48 hours, Q-PCR; for inhibition at 50 µM: Homo sapiens, LX-2, 50 µM, read-out: COL1A1 mRNA inhibition rate; for COL1A1 mRNA inhibition rate: 50 µM
Method: as §1, §2, §3, §4, §5

[3] = test system: IL-1β; assay: In vitro efficacy in semi-activated LX2 cells, qPCR: IL-1β; settings: 48 hours, Q-PCR; for inhibition at 50 µM: Homo sapiens, LX-2, 50 µM, read-out: IL-1β mRNA inhibition rate; for IL-1β mRNA inhibition rate: 50 µM
Method: as §1, §2, §3, §4, §5

[4] = test system: TNF-α; assay: In vitro efficacy in semi-activated LX2 cells, qPCR: TNF-α; settings: Q-PCR; for inhibition at 50 µM: Homo sapiens, LX-2, 48 hours, read-out: TNF-α mRNA inhibition rate
Method: as §1, §2, §3, §4
(§6) LX2 cells were passaged and plated normally. After adherent growth for 12 hours, 50 µM of the test compound was added. After 48 hours, the cells were collected, total RNA was extracted, and Q-PCR was used to detect the changes in the mRNA expression levels of liver fibrosis-related genes (ACTA2 encoding α-SMA, COL1A1 and COLIA2 encoding collagen I, COL3A1 encoding collagen III, SMAD3 encoding Smad3) and inflammation-related genes (IL1β encoding IL-1β, TNFα encoding TNFα) (for specific methods, see 5. Q-PCR detection of target gene expression as described above). α-SMA was a marker of hepatic stellate cell activation, and collagen I and collagen III were the main components of extracellular matrix deposition.

[5] = test system: Smad3; assay: In vitro efficacy in semi-activated LX2 cells, qPCR: Smad3; settings: 48 hours, Q-PCR; for inhibition at 50 µM: Homo sapiens, LX-2, 50 µM, read-out: Smad3 mRNA inhibition rate
Method: as §1, §2, §3, §4, §5

[6] = test system: collagen I and collagen III; assay: Semi-activated LX2 cells, qPCR: collagen I and collagen III at the mRNA level; settings: 48 hours, Q-PCR, Table 2
Method: as §1, §3
as §6, with “deposition. […]” for “deposition.”

[7] = test system: COL1A2; assay: In vitro efficacy in semi-activated LX2 cells, qPCR: COL1A2; settings: Homo sapiens, LX-2, 48 hours, Q-PCR, read-out: COL1A2 mRNA inhibition rate
Method: as §1, §2, §3, §4, §6

[8] = test system: α-SMA; assay: In vitro efficacy in semi-activated LX2 cells, qPCR: α-SMA; settings: 48 hours, Q-PCR; for inhibition at 50 µM: read-out: α-SMA mRNA inhibition rate
Method: as §1, §2, §3, §4, §5

Row | Compound | inhibition at 50 µM [1] | inhibition at 50 µM [2] | inhibition at 50 µM [3] | inhibition at 50 µM [4] | inhibition at 50 µM [5] | inhibition of the expression of collagen I and collagen III at the mRNA level [6] | inhibition at 50 µM [8] | other results
1 | N[C@@H](CC(=O)OCc1ccccc1)C(=O)O [Compound 22] | 1 to 10% | 10 to 25% | 1 to 10% | 1 to 10% | 10 to 25% | could inhibit | – | inhibition of the expression of Smad3 at the mRNA level ([5]; Table 2): could inhibit
2 | O=CN[C@@H](CC(=O)O)C(=O)O [Compound 29] | – | 1 to 10% | – | – | – | – | 1 to 10% | inhibition at 50 µM [7]: 1 to 10%
3 | CC(=O)N[C@@H](CC(=O)OC(C)(C)C)C(=O)O [Compound 31] | – | 1 to 10% | 1 to 10% | – | – | – | 1 to 10% | –
4 | N[C@@H](CC(=O)NCC(=O)O)C(=O)O [Compound 34] | 1 to 10% | – | 1 to 10% | 1 to 10% | 1 to 10% | – | 1 to 10% | –
5 | CC(C)OC(=O)C[C@H](N)C(=O)O [Compound 36, 4-isopropyl L-aspartic acid ester] | 1 to 10% | – | – | 1 to 10% | 1 to 10% | – | 1 to 10% | –
6 | O=C(O)C[C@H](NC(=O)[C@@H]1CCCN1)C(=O)O [Compound 40] (H-Pro-Asp-OH) | 25 to 50% | 25 to 50% | 1 to 10% | 1 to 10% | 1 to 10% | could inhibit | – | –
7 | CC(C)(C)OC(=O)[C@@H](N)CC(=O)OCc1ccccc1.Cl [Compound 42] | – | – | – | – | – | could inhibit | – | COL3A1 mRNA inhibition rate [1]: E (E represented that the inhibition rate was 1% to 10%); COL1A1 mRNA inhibition rate [2]: C (C represented that the inhibition rate was 25% to 50%); IL-1β mRNA inhibition rate [3]: E (E represented that the inhibition rate was 1% to 10%); TNF-α mRNA inhibition rate ([4]; 50 µM, 48 hours): D (D represented that the inhibition rate was 10% to 25%); Smad3 mRNA inhibition rate ([5]; 50 µM): E (E represented that the inhibition rate was 1% to 10%)
8 | COC(=O)C[C@H](N)C(=O)OC(C)(C)C.Cl [Compound 44] | – | – | – | – | – | could inhibit | – | COL3A1 mRNA inhibition rate [1]: E (E represented that the inhibition rate was 1% to 10%); COL1A1 mRNA inhibition rate [2]: D (D represented that the inhibition rate was 10% to 25%); IL-1β mRNA inhibition rate [3]: E (E represented that the inhibition rate was 1% to 10%)
9 | CC(C)OC(=O)OCOC(=O)[C@H](Cc1ccccc1)NC(=O)[C@@H](N)CC(=O)O [Compound 53, (S)-3-amino-4-(((S)-1-(((isopropoxycarbonyl)oxy)methoxy)-1-oxo-3-phenylpropan-2-yl)amino)-4-oxobutyric acid hydrochloride] | 10 to 25% | 10 to 25% | – | – | – | could inhibit | 10 to 25% | inhibition at 50 µM [7]: 1 to 10%; inhibition of the expression of α-SMA at the mRNA level ([8]; Table 2): could inhibit
10 | CC(C)C(=O)N[C@@H](CC(=O)O)C(=O)O [Compound 59, isobutyryl-L-aspartic acid] | – | 10 to 25% | – | 1 to 10% | – | could inhibit | 1 to 10% | –
11 | CN(C)C(=O)N[C@@H](CC(=O)O)C(=O)O [Compound 62, (dimethylcarbamoyl)-L-aspartic acid] | – | 1 to 10% | 1 to 10% | 1 to 10% | 1 to 10% | – | 1 to 10% | –
